Data: ChEMBL document CHEMBL1134196, “Oxo-piperazine derivatives of N-arylpiperazinones as inhibitors of farnesyltransferase” (Bioorg Med Chem Lett, 2001)

Tested on: not listed separately
Test: Pharmacokinetic data in dogs at dose of 1 mg/kg perorally, and the area under curve (AUC) was reported.
Assay type: ADME, organism-based, Canis lupus familiaris
Set-up: dose 1 mg/kg, route oral
Conditions: dog, in vivo, po

SMILES | AUC [µM·h]
CCCC[C@H]1CN(c2cccc(C)c2C)C(=O)CN1Cc1cncn1Cc1ccc(C#N)cc1 | 0.15
N#Cc1ccc(Cn2cncc2CN2CCN(c3cccc(Cl)c3)CC2=O)cc1 | 8.58
Cc1cccc(N2CCN(Cc3cncn3Cc3ccc(C#N)cc3)CC2=O)c1C | 1.4
Cc1cccc(N2CCN(Cc3cncn3Cc3ccc(C#N)cc3)C(=O)C2=O)c1C | 4.43
N#Cc1ccc(Cn2cncc2CN2CCN(c3cccc(Cl)c3)C(=O)C2=O)cc1 | 12.5
CCCC[C@H]1CN(c2cccc(C)c2C)CC(=O)N1Cc1cncn1Cc1ccc(C#N)cc1 | 3.46
CCCC[C@H]1CN(c2cccc(C)c2C)C(=O)C(=O)N1Cc1cncn1Cc1ccc(C#N)cc1 | 4.25
N#Cc1ccc(Cn2cncc2CN2CCN(c3cccc(Cl)c3)C(=O)C2)cc1 [L-778123 FREE BASE] | 5.3

Molecular target: Protein farnesyltransferase (Homo sapiens, UniProt P49354+P49356)
Test: Inhibition of [3H]FPP incorporation into recombinant Ras-CVIM by human farnesyl transferase
Assay type: protein-complex assay
Conditions: not given

SMILES | IC50 [µM]
N#Cc1ccc(Cn2cncc2CN2CCN(c3cccc(Cl)c3)CC2)cc1 | 250
N#Cc1ccc(Cn2cncc2CN2CCN(c3cccc(Cl)c3)CC2=O)cc1 | 100
N#Cc1ccc(Cn2cncc2C(=O)N2CCN(c3cccc(Cl)c3)C(=O)C2)cc1 | 33
Cc1cccc(N2CCN(Cc3cncn3Cc3ccc(C#N)cc3)CC2=O)c1C | 11
Cc1cccc(N2CCN(Cc3cncn3Cc3ccc(C#N)cc3)C(=O)C2=O)c1C | 20
N#Cc1ccc(Cn2cncc2CN2CCN(c3ccccc3)C(=O)C2)cc1 | 5
N#Cc1ccc(Cn2cncc2CN2CCN(c3cccc(Cl)c3)C(=O)C2=O)cc1 | 11
CCCC[C@H]1CN(c2cccc(C)c2C)CC(=O)N1Cc1cncn1Cc1ccc(C#N)cc1 | 1.3
N#Cc1ccc(Cn2cncc2CN2CCN(c3ccccc3)C(=O)C2=O)cc1 | 16
CCCC[C@H]1CN(c2cccc(C)c2C)C(=O)C(=O)N1Cc1cncn1Cc1ccc(C#N)cc1 | 3
N#Cc1ccc(Cn2cncc2CN2CC(=O)N(c3ccccc3)CC2=O)cc1 | 950

Tested on: not listed separately
Test: Partition coefficient (logP)
Assay type: physicochemical
Conditions: octanol/water

SMILES | logP
CCCC[C@H]1CN(c2cccc(C)c2C)C(=O)CN1Cc1cncn1Cc1ccc(C#N)cc1 | > 3.7
N#Cc1ccc(Cn2cncc2CN2CCN(c3cccc(Cl)c3)CC2)cc1 | > 3.4
N#Cc1ccc(Cn2cncc2CN2CCN(c3cccc(Cl)c3)CC2=O)cc1 | 2.51
Cc1cccc(N2CCN(Cc3cncn3Cc3ccc(C#N)cc3)CC2=O)c1C | 2
Cc1cccc(N2CCN(Cc3cncn3Cc3ccc(C#N)cc3)C(=O)C2=O)c1C | 1.11
N#Cc1ccc(Cn2cncc2C(=O)N2CCN(c3cccc(Cl)c3)CC2)cc1 | 2.79
N#Cc1ccc(Cn2cncc2CN2CCN(c3ccccc3)C(=O)C2)cc1 | 1.32
N#Cc1ccc(Cn2cncc2CN2CCN(c3cccc(Cl)c3)C(=O)C2=O)cc1 | 1.24
CCCC[C@H]1CN(c2cccc(C)c2C)CC(=O)N1Cc1cncn1Cc1ccc(C#N)cc1 | > 3.5
N#Cc1ccc(Cn2cncc2CN2CCN(c3ccccc3)C(=O)C2=O)cc1 | 0.46
CCCC[C@H]1CN(c2cccc(C)c2C)C(=O)C(=O)N1Cc1cncn1Cc1ccc(C#N)cc1 | 3.3
N#Cc1ccc(Cn2cncc2CN2CC(=O)N(c3ccccc3)CC2=O)cc1 | 0.55
N#Cc1ccc(Cn2cncc2CN2CCN(c3cccc(Cl)c3)C(=O)C2)cc1 [L-778123 FREE BASE] | 2.11

Molecular target: Geranylgeranyl transferase type I (Homo sapiens, UniProt P49354+P53609)
Test: Inhibition of human geranylgeranyltransferase-1
Assay type: protein-complex assay
Conditions: not given

SMILES | IC50 [µM]
N#Cc1ccc(Cn2cncc2CN2CCN(c3ccccc3)C(=O)C2)cc1 | 8.7
N#Cc1ccc(Cn2cncc2CN2CCN(c3ccccc3)C(=O)C2=O)cc1 | > 20

Tested on: Rat1
Test: Inhibition of RAT1 v-Ha-ras-transformed cell growth in soft agar
Assay type: functional
Conditions: Rattus norvegicus

SMILES | IC90 [µM]
CCCC[C@H]1CN(c2cccc(C)c2C)C(=O)CN1Cc1cncn1Cc1ccc(C#N)cc1 | 1
N#Cc1ccc(Cn2cncc2CN2CCN(c3cccc(Cl)c3)CC2)cc1 | 1
N#Cc1ccc(Cn2cncc2CN2CCN(c3cccc(Cl)c3)CC2=O)cc1 | 1
N#Cc1ccc(Cn2cncc2C(=O)N2CCN(c3cccc(Cl)c3)C(=O)C2)cc1 | 1
Cc1cccc(N2CCN(Cc3cncn3Cc3ccc(C#N)cc3)CC2=O)c1C | 1
Cc1cccc(N2CCN(Cc3cncn3Cc3ccc(C#N)cc3)C(=O)C2=O)c1C | > 1
N#Cc1ccc(Cn2cncc2C(=O)N2CCN(c3cccc(Cl)c3)CC2)cc1 | 0.1
N#Cc1ccc(Cn2cncc2CN2CCN(c3cccc(Cl)c3)C(=O)C2=O)cc1 | 1
CCCC[C@H]1CN(c2cccc(C)c2C)CC(=O)N1Cc1cncn1Cc1ccc(C#N)cc1 | 10
CCCC[C@H]1CN(c2cccc(C)c2C)C(=O)C(=O)N1Cc1cncn1Cc1ccc(C#N)cc1 | 1
N#Cc1ccc(Cn2cncc2CN2CCN(c3cccc(Cl)c3)C(=O)C2)cc1 [L-778123 FREE BASE] | 0.1

Organism: Rattus norvegicus
Test: Concentration at which 80% cultured cells remain viable assessed by MTT staining
Assay type: functional
Conditions: not given

SMILES | IC20 [µM]
CCCC[C@H]1CN(c2cccc(C)c2C)C(=O)CN1Cc1cncn1Cc1ccc(C#N)cc1 | 50
N#Cc1ccc(Cn2cncc2CN2CCN(c3cccc(Cl)c3)CC2)cc1 | 25
N#Cc1ccc(Cn2cncc2CN2CCN(c3cccc(Cl)c3)CC2=O)cc1 | > 100
N#Cc1ccc(Cn2cncc2C(=O)N2CCN(c3cccc(Cl)c3)C(=O)C2)cc1 | > 100
Cc1cccc(N2CCN(Cc3cncn3Cc3ccc(C#N)cc3)CC2=O)c1C | 10
Cc1cccc(N2CCN(Cc3cncn3Cc3ccc(C#N)cc3)C(=O)C2=O)c1C | 10
N#Cc1ccc(Cn2cncc2C(=O)N2CCN(c3cccc(Cl)c3)CC2)cc1 | > 100
N#Cc1ccc(Cn2cncc2CN2CCN(c3cccc(Cl)c3)C(=O)C2=O)cc1 | > 100
CCCC[C@H]1CN(c2cccc(C)c2C)CC(=O)N1Cc1cncn1Cc1ccc(C#N)cc1 | 100
CCCC[C@H]1CN(c2cccc(C)c2C)C(=O)C(=O)N1Cc1cncn1Cc1ccc(C#N)cc1 | 10
N#Cc1ccc(Cn2cncc2CN2CCN(c3cccc(Cl)c3)C(=O)C2)cc1 [L-778123 FREE BASE] | > 100

Tested on: Rat1
Test: Inhibition of anchorage-dependent proliferation of RAT1 v-Ha-ras-transformed cells on poly(HEMA)
Assay type: functional, cell-based
Conditions: Rattus norvegicus

SMILES | IC50 [µM]
CCCC[C@H]1CN(c2cccc(C)c2C)C(=O)CN1Cc1cncn1Cc1ccc(C#N)cc1 | 28
Cc1cccc(N2CCN(Cc3cncn3Cc3ccc(C#N)cc3)CC2=O)c1C | 83
CCCC[C@H]1CN(c2cccc(C)c2C)CC(=O)N1Cc1cncn1Cc1ccc(C#N)cc1 | 2.51
CCCC[C@H]1CN(c2cccc(C)c2C)C(=O)C(=O)N1Cc1cncn1Cc1ccc(C#N)cc1 | 15

Tested on: not listed separately
Test: Half life value of the compound
Assay type: ADME
Conditions: rat

SMILES | half-life [min]
CCCC[C@H]1CN(c2cccc(C)c2C)C(=O)CN1Cc1cncn1Cc1ccc(C#N)cc1 | 36
N#Cc1ccc(Cn2cncc2CN2CCN(c3cccc(Cl)c3)CC2=O)cc1 | 72
Cc1cccc(N2CCN(Cc3cncn3Cc3ccc(C#N)cc3)CC2=O)c1C | 30
Cc1cccc(N2CCN(Cc3cncn3Cc3ccc(C#N)cc3)C(=O)C2=O)c1C | 60
N#Cc1ccc(Cn2cncc2CN2CCN(c3cccc(Cl)c3)C(=O)C2=O)cc1 | 132
CCCC[C@H]1CN(c2cccc(C)c2C)CC(=O)N1Cc1cncn1Cc1ccc(C#N)cc1 | 138
CCCC[C@H]1CN(c2cccc(C)c2C)C(=O)C(=O)N1Cc1cncn1Cc1ccc(C#N)cc1 | 54
N#Cc1ccc(Cn2cncc2CN2CCN(c3cccc(Cl)c3)C(=O)C2)cc1 [L-778123 FREE BASE] | 47.4

Tested on: not listed separately
Test: Maximal plasma concentration required for pharmacokinetic data in dogs at dose of 1 mg/kg perorally
Assay type: ADME, organism-based, Canis lupus familiaris
Set-up: dose 1 mg/kg, route oral
Conditions: dog, po

SMILES | Cmax [nM]
CCCC[C@H]1CN(c2cccc(C)c2C)C(=O)CN1Cc1cncn1Cc1ccc(C#N)cc1 | 140
N#Cc1ccc(Cn2cncc2CN2CCN(c3cccc(Cl)c3)CC2=O)cc1 | 3140
Cc1cccc(N2CCN(Cc3cncn3Cc3ccc(C#N)cc3)CC2=O)c1C | 1060
Cc1cccc(N2CCN(Cc3cncn3Cc3ccc(C#N)cc3)C(=O)C2=O)c1C | 2290
N#Cc1ccc(Cn2cncc2CN2CCN(c3cccc(Cl)c3)C(=O)C2=O)cc1 | 3110
CCCC[C@H]1CN(c2cccc(C)c2C)CC(=O)N1Cc1cncn1Cc1ccc(C#N)cc1 | 960
CCCC[C@H]1CN(c2cccc(C)c2C)C(=O)C(=O)N1Cc1cncn1Cc1ccc(C#N)cc1 | 1950
N#Cc1ccc(Cn2cncc2CN2CCN(c3cccc(Cl)c3)C(=O)C2)cc1 [L-778123 FREE BASE] | 2980
